Molecular target: T1, β-secretase(BACE) (Homo sapiens, UniProt P56817)
T1 construct: purchased Panvera
Assay: BACE FS1% Inhibition Assay
Type: biochemical
Settings: FS1 substrate; for inhibition at 0.3 µM: read-out: % Inhibition (FS) 0.3 μM; for inhibition at 1 µM: read-out: % Inhibition (FS) 1 μM; for inhibition at 3 µM: read-out: % Inhibition (FS) 3 μM
How it was run: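 Human BACE (4 μg/mL working solution) preincubated 20 min at room temperature with compound, then FS1 substrate (300 μg/mL working solution) added and incubated 1 h at room temperature. Percent inhibition calculated at each compound concentration against blank and vehicle controls.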

T1 sequence (P56817 46-501): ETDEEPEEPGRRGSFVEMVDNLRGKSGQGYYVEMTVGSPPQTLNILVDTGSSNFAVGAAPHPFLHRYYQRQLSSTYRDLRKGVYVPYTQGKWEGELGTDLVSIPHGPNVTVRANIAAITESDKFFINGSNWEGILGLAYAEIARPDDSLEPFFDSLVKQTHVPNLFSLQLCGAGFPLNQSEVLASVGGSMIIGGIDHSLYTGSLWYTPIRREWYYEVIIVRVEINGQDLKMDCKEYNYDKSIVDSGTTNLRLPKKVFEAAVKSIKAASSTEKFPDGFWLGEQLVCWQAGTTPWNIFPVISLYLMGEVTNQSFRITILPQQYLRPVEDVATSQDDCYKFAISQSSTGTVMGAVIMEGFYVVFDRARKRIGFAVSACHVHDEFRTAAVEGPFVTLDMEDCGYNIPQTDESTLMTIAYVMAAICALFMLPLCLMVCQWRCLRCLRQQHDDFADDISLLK

Structure (SMILES)	% Inhibition (FS) 0.3 μM (0.3 μM test compound) [%]	% Inhibition (FS) 1 μM (1 μM test compound) [%]	% Inhibition (FS) 3 μM (3 μM test compound) [%]	other results
NC1=Nc2ccc(Oc3ccccc3)cc2CN1C(Cc1ccccc1)c1ocnc1C(=O)NC1CCCCC1 (centres unmarked) [Compound 606, 5-[1-(2-Amino-6-phenoxy-4H-quinazolin-3-yl)-2-phenyl-ethyl]-oxazole-4-carboxylic acid cyclohexylamide]	–	–	–	inhibition at 0.3 µM (0.3 μM test compound): < 30%; inhibition at 1 µM (1 μM test compound): < 30%; inhibition at 3 µM (3 μM test compound): 56%
NC1=Nc2ccc(-c3cnc4ccccc4c3)cc2CN1CCNC(=O)C1CCCC1 [Compound 671]	–	–	–	% Inhibition (FS) (0.3 μM test compound): <30%; % Inhibition (FS) (1 μM test compound): 30%; % Inhibition (FS) (3 μM test compound): <30%
NC1=Nc2ccc(-c3ccccc3-c3ccccc3)cc2CN1CCNC(=O)C1CCCCC1 [Compound 544]	32	<30	51	–
CNC(=O)c1ccccc1Sc1ccc2c(c1)CN(Cc1cccc(C(=O)N(C)C3CCCCC3)c1)C(N)=N2 [Compound 416]	<30	<30	−3	–
NC1=Nc2ccc(-c3ccccc3F)cc2CN1CCNC(=O)C1CCC(C(F)(F)F)CC1 (centres unmarked) [Compound 688]	–	–	–	% Inhibition (FS) (0.3 μM test compound): <30%; % Inhibition (FS) (1 μM test compound): 36%; % Inhibition (FS) (3 μM test compound): 81%
CN(C)c1cccc(Oc2ccc3c(c2)CN(Cc2cccc(C(=O)N(C)C4CCCCC4)c2)C(N)=N3)c1 [Compound 479]	<30	<30	81	–
CN(C(=O)c1cccc(CN2Cc3cc(-c4ccccc4Oc4ccccc4)ccc3N=C2N)c1)C1CCCCC1 [Compound 326]	<30	35	79	–
CN(C(=O)c1cccc(CN2Cc3cc(-c4cn[nH]c4)ccc3N=C2N)c1)C1CCCCC1 [Compound 161]	<30	<30	<30	–
CN(C(=O)c1cccc(CN2Cc3cc(Nc4ccc5ccccc5c4)ccc3N=C2N)c1)C1CCCCC1 [Compound 436]	<30	37	50	–
CN(C(=O)CCC(C1CCCCC1)N1Cc2cc(Oc3ccccc3)ccc2N=C1N)C1(C(=O)O)CCCCC1 (centres unmarked) [Compound 741]	–	–	–	% Inhibition (FS) (0.3 μM test compound): −48%; % Inhibition (FS) (1 μM test compound): −38%; % Inhibition (FS) (3 μM test compound): −25%
Cc1cc(C)cc(Oc2ccc3c(c2)CN(Cc2cccc(C(=O)N(C)C4CCCCC4)c2)C(N)=N3)c1 [Compound 228]	<30	49	40	–
COC(=O)[C@H]1CC[C@H](NC(=O)CC[C@@H](C2CCOCC2)N2Cc3cc(Oc4ccccc4)ccc3N=C2N)CC1 [Compound 747]	–	–	–	% Inhibition (FS) (0.3 μM test compound): 41%; % Inhibition (FS) (1 μM test compound): 74%; % Inhibition (FS) (3 μM test compound): 104%
CC(C)Oc1ccc2c(c1)CN(Cc1cccc(C(=O)N(C)C3CCCCC3)c1)C(N)=N2 [Compound 519]	<30	<30	<30	–
NC1=Nc2ccc(Oc3ccccc3)cc2CN1C1CCCCN(C(=O)C23CC4CC(CC(C4)C2)C3)C1 (centres unmarked) [Compound 550]	<30	<30	67	–
CCCCC(CC)C(=O)NCCN1Cc2cc(-c3cnc4ccccc4c3)ccc2N=C1N (centres unmarked) [Compound 676]	–	–	–	% Inhibition (FS) (0.3 μM test compound): 33%; % Inhibition (FS) (1 μM test compound): <30%; % Inhibition (FS) (3 μM test compound): 44%
CN(C(=O)c1cccc(CN2Cc3cc(Sc4ccc5ccccc5c4)ccc3N=C2N)c1)C1CCCCC1 [Compound 415]	<30	<30	63	–
CN(C)c1ccc(Nc2ccc3c(c2)CN(Cc2cccc(C(=O)N(C)C4CCCCC4)c2)C(N)=N3)cc1 [Compound 438]	<30	<30	<30	–
COc1cccc(OC)c1Oc1ccc2c(c1)CN(Cc1cccc(C(=O)N(C)C3CCCCC3)c1)C(N)=N2 [Compound 477]	<30	<30	<30	–
COc1cccc(COc2ccc3c(c2)CN(Cc2cccc(C(=O)N(C)C4CCCCC4)c2)C(N)=N3)c1 [Compound 514]	<30	<30	<30	–
NC1=Nc2ccc(Oc3ccccc3)cc2CN1Cc1cccc(CNC(=O)C(F)(F)F)c1 [Compound 307]	<30	<30	<30	–
COc1ccccc1-c1ccc2c(c1)CN(CCNC(=O)CN)C(N)=N2 [Compound 490]	<30	<30	<30	–
CN(C(=O)CCC(c1ccc(-c2ccccc2)cc1)N1Cc2cc(Oc3ccccc3)ccc2N=C1N)C1CCCCC1 (centres unmarked) [Compound 420]	<30	<30	53	–

Structure (SMILES)	% Inhibition (FS) 0.3 μM (0.3 μM test compound) [%]	% Inhibition (FS) 1 μM (1 μM test compound) [%]	% Inhibition (FS) 3 μM (3 μM test compound) [%]	other results
COC(=O)C(COCc1ccccc1)N(C)C(=O)CCC(C1CCCCC1)N1Cc2cc(Oc3ccccc3)ccc2N=C1N (centres unmarked) [Compound 780]	–	–	–	% Inhibition (FS) (0.3 μM test compound): 69%; % Inhibition (FS) (1 μM test compound): 97%; % Inhibition (FS) (3 μM test compound): 109%
NC1=Nc2ccc(Oc3ccccc3)cc2CN1CCNC(=O)C(c1ccccc1)c1ccccc1 [Compound 207]	48	90	108	–
CCOC(=O)C1CCC(N(C)C(=O)CCC(C2CCCCC2)N2Cc3cc(Oc4ccccc4)ccc3N=C2N)CC1 (centres unmarked) [Compound 737]	–	–	–	% Inhibition (FS) (0.3 μM test compound, 0.3 µM): 22%; % Inhibition (FS) (1 μM test compound, 1 µM): 34%; % Inhibition (FS) (3 μM test compound, 3 µM): 97%
CS(=O)(=O)Nc1ccccc1-c1ccc2c(c1)CN(CCNC(=O)C1CCCCC1)C(N)=N2 [Compound 539]	<30	<30	<30	–
CC(C)C(CC(=O)N(C(C)C)C1CCCCC1)N1Cc2cc(Oc3ccccc3)ccc2N=C1N (centres unmarked) [Compound 202]	<30	<30	<30	–
CCCC(=O)NCCN1Cc2cc(-c3ccccc3C)ccc2N=C1N [Compound 659]	43	69	100	–
CC(=O)Nc1ccc(C(=O)NCCN2Cc3cc(-c4cccc(C(F)(F)F)c4)ccc3N=C2N)cc1 [Compound 594]	<30	<30	<30	–
CC(C)CCC(=O)NCCN1Cc2cc(-c3ccc4ccccc4c3)ccc2N=C1N [Compound 668]	–	–	–	% Inhibition (FS) (0.3 μM test compound): <30%; % Inhibition (FS) (1 μM test compound): <30%; % Inhibition (FS) (3 μM test compound): <30%
Cc1ccccc1-c1ccc2c(c1)CN(CCNC(=O)C1CCC(C(F)(F)F)CC1)C(N)=N2 (centres unmarked) [Compound 694]	–	–	–	% Inhibition (FS) (0.3 μM test compound): <30%; % Inhibition (FS) (1 μM test compound): <30%; % Inhibition (FS) (3 μM test compound): 84%
CN(C(=O)c1cccc(CN2Cc3cc(-c4ccccc4-c4ccccc4)ccc3N=C2N)c1)C1CCCCC1 [Compound 321]	−33	<30	<30	–
C[C@@H](CNC(=O)C1CCCCC1)N1Cc2cc(Oc3ccccc3)ccc2N=C1N [Compound 486]	<30	<30	<30	–
CN(C(=O)c1cccc(CN2Cc3cc(Oc4ccccc4-c4ccccc4)ccc3N=C2N)c1)C1CCCCC1 [Compound 234]	<30	57	43	–
CCCC(CCCC(=O)NC1CCCCC1)N1Cc2cc(Oc3ccccc3)ccc2N=C1N (centres unmarked) [Compound 91]	–	–	68	% Inhibition (FS) 10 μM (10 μM test compound): 117%
CSc1ccccc1-c1ccc2c(c1)CN(Cc1cccc(C(=O)N(C)C3CCCCC3)c1)C(N)=N2 [Compound 322]	<30	<30	95	–
CC(C)(C)C(=O)NCCN1Cc2cc(-c3ccc4ccccc4c3)ccc2N=C1N [Compound 667]	–	–	–	% Inhibition (FS) (0.3 μM test compound): 33%; % Inhibition (FS) (1 μM test compound): <30%; % Inhibition (FS) (3 μM test compound): <30%
CN(C(=O)c1cccc(CN2Cc3cc(Oc4ccccc4C4CCCC4)ccc3N=C2N)c1)C1CCCCC1 [Compound 512]	<30	<30	51	–
NC1=Nc2ccc(Oc3ccccc3)cc2CN1Cc1cccc(NC(=O)C2CCCCC2)c1 [Compound 286]	<30	<30	36	–
COc1ccccc1-c1ccc2c(c1)N=C(N)N(CCC(=O)NC1C3CC4CC(C3)CC1C4)C2 (centres unmarked) [Compound 617, N-Adamantan-2-yl-3-[2-amino-7-(2-methoxy-phenyl)-4H-quinazolin-3-yl]-propionamide]	–	–	–	inhibition at 0.3 µM (0.3 μM test compound): < 30%; inhibition at 1 µM (1 μM test compound): 34%; inhibition at 3 µM (3 μM test compound): 41%
NC1=Nc2ccc(-c3ccc(F)cc3)cc2CN1CCNC(=O)C1CCCCC1 [Compound 624]	<30	–	–	% Inhibition (FS) 1 μM (1 μM test compound, 1 µM): 38%; % Inhibition (FS) 3 μM (3 μM test compound, 3 µM): 78%
COc1ccc(-c2nc3ccccc3s2)c(Oc2ccc3c(c2)CN(Cc2cccc(C(=O)N(C)C4CCCCC4)c2)C(N)=N3)c1 [Compound 469]	<30	<30	<30	–
CC(=O)Nc1ccccc1-c1ccc2c(c1)CN(CCNC(=O)C1CCCCC1)C(N)=N2 [Compound 541]	<30	<30	<30	–
CCCC(CCC)C(=O)N1CCCCC(N2Cc3cc(Oc4ccccc4)ccc3N=C2N)C1 (centres unmarked) [Compound 552]	<30	<30	36	–

Reference: patent publication US8383637B2, “2-amino-quinazoline derivatives useful as inhibitors of β-secretase (BACE)” (Jansssen Pharmaceutica N.V., priority 2004, dated 2013)
